Experimental data as given in US12708630B2, “Combined therapy of 4′-thio-5-aza-2′-deoxycytidine and Venetoclax” (PINOTBIO, INC., priority 2021, dated 2026).

What was measured:
Experiment in all cases: drug activity profiling cytotoxicity
Format in all cases: cell-based
[1] = system: A-253; details: Homo sapiens, A253; A-253 cell line, Head and Neck; read-out: Aza-T-dCyd IC50
How it was run: (§1)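 Each line's cytotoxic response to Aza-T-dCyd was recorded within a 200-line profiling study designed to find predictive markers.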

[2] = system: A431; details: Homo sapiens, A-431; A431 cell line, Skin (Head and Neck); read-out: Aza-T-dCyd IC50
How it was run: as §1

[3] = system: BE(2)C; details: Homo sapiens; BE(2)C cell line, CNS (Neuroblastoma); read-out: Aza-T-dCyd IC50
How it was run: as §1

[4] = system: BFTC-905; details: Homo sapiens; BFTC-905 cell line, Bladder; read-out: Aza-T-dCyd IC50
How it was run: as §1

[5] = system: BM-1604; details: BM-1604 cell line, Prostate; read-out: Aza-T-dCyd IC50
How it was run: as §1

[6] = system: CGTH-W-1; details: Homo sapiens; CGTH-W-1 cell line, Endocrine (Thyroid); read-out: Aza-T-dCyd IC50
How it was run: as §1

[7] = system: Caki-2; details: Homo sapiens; Caki-2 cell line, Kidney; read-out: Aza-T-dCyd IC50
How it was run: as §1

[8] = system: ChaGoK1; details: Homo sapiens, ChaGo-K-1; ChaGoK1 cell line, Lung (NSCLC); read-out: Aza-T-dCyd IC50
How it was run: as §1

[9] = system: DK-MG; details: DK-MG cell line, CNS (Glioma); read-out: Aza-T-dCyd IC50
How it was run: as §1

[10] = system: HT; details: Homo sapiens; HT cell line, B-cell lymphoma; read-out: Aza-T-dCyd IC50
How it was run: as §1

[11] = system: J82; details: Homo sapiens; J82 cell line, Bladder; read-out: Aza-T-dCyd IC50
How it was run: as §1

[12] = system: JAR; details: JAR cell line, Placenta; read-out: Aza-T-dCyd IC50
How it was run: as §1

[13] = system: MCF7; details: Homo sapiens; MCF7 cell line, Breast; read-out: Aza-T-dCyd IC50
How it was run: as §1

[14] = system: MDA MB 468; details: Homo sapiens; MDA MB 468 cell line, Breast; read-out: Aza-T-dCyd IC50
How it was run: as §1

[15] = system: MG-63; details: Homo sapiens; MG-63 cell line, Bone (Osteosarcoma); read-out: Aza-T-dCyd IC50
How it was run: as §1

[16] = system: MOLT-16; details: Homo sapiens; MOLT-16 cell line, ALL; read-out: Aza-T-dCyd IC50
How it was run: as §1

[17] = system: Mia PaCa-2; details: Homo sapiens; Mia PaCa-2 cell line, Pancreas; read-out: Aza-T-dCyd IC50
How it was run: as §1

[18] = system: NCI-H508; details: Homo sapiens; NCI-H508 cell line, Colon; read-out: Aza-T-dCyd IC50
How it was run: as §1

[19] = system: NCI-H747; details: Homo sapiens; NCI-H747 cell line, Colon; read-out: Aza-T-dCyd IC50
How it was run: as §1

[20] = system: NCIH441; details: Homo sapiens, NCI-H441; NCIH441 cell line, Lung (NSCLC); read-out: Aza-T-dCyd IC50
How it was run: as §1

[21] = system: NTERA-2 cl.D1; details: Homo sapiens; NTERA-2 cl.D1 cell line, Testis; read-out: Aza-T-dCyd IC50
How it was run: as §1

[22] = system: OE33; details: Homo sapiens; OE33 cell line, Head and Neck; read-out: Aza-T-dCyd IC50
How it was run: as §1

[23] = system: RPMI-7951; details: Homo sapiens; RPMI-7951 cell line, Skin (Melanoma); read-out: Aza-T-dCyd IC50
How it was run: as §1

[24] = system: SCC-25; details: Homo sapiens; SCC-25 cell line, Head and Neck; read-out: Aza-T-dCyd IC50
How it was run: as §1

[25] = system: SKMES1; details: Homo sapiens, SK-MES-1; SKMES1 cell line, Lung (NSCLC); read-out: Aza-T-dCyd IC50
How it was run: as §1

[26] = system: T24; details: Homo sapiens, T-24; T24 cell line, Bladder; read-out: Aza-T-dCyd IC50
How it was run: as §1

[27] = system: TF-1; details: Homo sapiens; TF-1 cell line, Erythroleukemia; read-out: Aza-T-dCyd IC50
How it was run: as §1

[28] = system: Thp1; details: Homo sapiens, THP-1; Thp1 cell line, AML; read-out: Aza-T-dCyd IC50
How it was run: as §1

Nc1ncn([C@H]2CC(O)[C@@H](CO)S2)c(=O)n1 (stereo partly shown) [Aza-T-dCyd, 4′-thio-5-aza-2′-deoxycytidine]
IC50 [1]: 601 nM
IC50 [2]: 256 nM
IC50 [3]: 373 nM
IC50 [4]: 119 nM
IC50 [5]: 4410 nM
IC50 [6]: 143 nM
IC50 [7]: 363 nM
IC50 [8]: 3410 nM
IC50 [9]: > 10000 nM
IC50 [10]: 1030 nM
IC50 [11]: 1980 nM
IC50 [12]: 296 nM
IC50 [13]: 6470 nM
IC50 [14]: 1340 nM
IC50 [15]: 990 nM
IC50 [16]: 18.2 nM
IC50 [17]: 881 nM
IC50 [18]: 542 nM
IC50 [19]: 319 nM
IC50 [20]: 1300 nM
IC50 [21]: 42.7 nM
IC50 [22]: 161 nM
IC50 [23]: 527 nM
IC50 [24]: 126 nM
IC50 [25]: 314 nM
IC50 [26]: 1530 nM
IC50 [27]: 733 nM
IC50 [28]: 5120 nM
